The values that follow come from paper PMC9170106, “Pre-clinical evaluation of LASSBio-1491: From in vitro pharmacokinetic study to in vivo leishmanicidal activity” (PLoS ONE, 2022).

A short description of series [1]: PAMPA-GIT permeability. As to conditions: for Fa experimental / Classification: GIT-PAMPA; for Fa experimental: absorbed fraction. From the text: (§1) The parallel artificial membrane permeability assay uses 96-well plate in a “sandwich” type system, where one plate overlaps the other (PAMPA). […] The lipid mixture that impregnates the PVDF filter has a different constitution for the permeability tests for the blood-brain barrier (Brain lipid from pig extract in dodecane) and gastro-intestinal tract (L-α soy phosphatidylcholine in dodecane). In the PAMPA BBB and TGI assays, the optical density values obtained in the reading at each selected wavelength, for each of the compounds were analyzed in comparison with the values of several controls. In the case of the BBB, these values were used to elaborate an equation and determine the permeability coefficient (Pe), using a previously elaborated spreadsheet, and, for the TGI, these values were used to determine the absorbed fraction (Fa%), both using the Excel® program.

The conditions of series [2]: GIT-PAMPA, ref literature, cited from earlier work; for Fa literature: absorbed fraction. For orientation: In PAMPA a lipid-coated filter parts donor from acceptor wells.
The test system of series [3] is L. major amastigote LV39 substrain. Put plainly: In vitro activity against intramacrophage amastigotes, LV39. It is filed as cell-based. As to conditions: Leishmania major. As to the method:
(§2) Briefly, female BALB/c mice (6 to 8 weeks old) received 1 mL sterile of 3% sodium thioglycolate by intraperitoneal route (i.p.) and were euthanized after 4 days. The intraperitoneal lavage was collected from the peritoneal cavity of mice using sterile PBS and cells were counted in a hemocytometer. Peritoneal adherent cells (macrophages) were plated at a concentration of 2 x 10^5 cells per well in 24-well culture plates containing glass coverslips. Subsequently, L. major promastigotes (harvested after the third passage) were added at a concentration of 2 x 10^6 parasites per well, aiming to infect the macrophages. […] After 24 hours in an incubator at 37 °C and 5% CO2, the coverslips were washed with PBS and stained with Giemsa-May Grünwald. The number of amastigotes in 100 macrophages was determined by counting using optical microscope (100x objective). Furthermore, the cell culture supernatant was also collected for nitrite measurement using the Griess reaction, an indirect way of determining the concentration of nitric oxide in the supernatant of infected macrophages from the experimental groups. The results obtained were expressed as the mean ± S.E.M. of the number of amastigotes or nitrite concentration from duplicate cultures of representative assays, with the data analyzed by ANOVA and Dunnett hoc tests, considering a significance level of p < 0.05. In addition, the linear regression analysis from the Kc values at employed concentrations was used to determine the IC50.

For series [4], the system named is L. major promastigote LV39 substrain. Briefly: In vitro activity against promastigotes, LV39. It is filed as cell-based. To be noted: Leishmania major. As to the method: (§3) L. major promastigotes LV39 (MRHO/SU/59/P) were obtained from João […] Preto Medical School- USP. L. major IOC/[…] promastigotes (MHOM/SU/1973/5-ASKH) were obtained from Leishmania collection of the Oswaldo Cruz Institute-Fiocruz. L. major promastigotes LV39 (MRHO/SU/59/P) and L. major IOC/[…] (MHOM/SU/1973/5-ASKH) were grown in a Schneider's medium (Sigma-Aldrich, St. […] The determination of the leishmanicidal activity of LASSBio-1491 against L. major promastigotes was carried out according to the methodology described by […] and colleagues (1996). […] After 48h of incubation in a Biochemical Oxygen Demand (B.O.D.) incubator, the promastigotes were counted using a hemocytometer. The results obtained were expressed as the mean ± S.E.M. of the number of promastigotes from triplicate cultures of representative assays, with the data analyzed by ANOVA and Dunnett hoc tests, considering a significance level of p < 0.05.

In series [5] the test system is spleen cells. Briefly: Cytotoxicity against spleen cells (propidium iodide). As to conditions: Mus musculus, 24 h. As to the method:
To carry out the suspension preparation of spleen cells, BALB/c mice were euthanized, and an incision was made to remove the spleen. The spleens were macerated using the end of the plungers from a 1 mL syringe in a 70 μm strainer placed in a Petri dish containing RPMI medium. […] After incubation for 4 min at room temperature, the cells were washed with RPMI medium. Subsequently, samples from three animals were pooled and the cell suspension was passed through a 40 μm strainer. Cells were counted in a Neubauer chamber and splenocytes were plated at a concentration of 5 x 10^5 cells per well in a 96-well culture plate. […] Moreover, spleen cells were also cultured just with medium (free of compounds or vehicle) or with DMSO 0.1%. […] After, the propidium iodide incorporation was performed according to the instructions of the Propidium Iodide Kit (Sigma, Copenhagen, Denmark). The splenocytes were analyzed in a FACS Canto II flow cytometer. The data files were saved using FACS Diva software and data analysis was done using Flow Jo software. […] Data obtained from experiments were expressed as the mean ± standard error of the mean (S.E.M.) of spleen died cells and statistical differences between the treated and the vehicle groups of experiments were evaluated by ANOVA and Dunnett hoc tests.

Series [6] concerns L. major amasitigote 5-ASKH substrain. Briefly: In vitro activity against intramacrophage amastigotes, 5-ASKH. Format: cell-based. As to conditions: Leishmania major. As to the method:
as §2

For series [7], the system named is peritoneal macrophages infected with L. major LV39. Put plainly: Nitrite measurement (Griess reaction) in infected macrophages. Format: cell-based, BALB/c mice. As to conditions: BALB/c macrophages infected with L. major LV39. As to the method:
as §2, with “In addition, the linear regression analysis from the Kc values at employed concentrations was used to determine the IC50.” left out
A general note: Griess reagent forms a coloured azo dye with nitrite.

Series [8] has as its system L. major promastigote 5-ASKH substrain. Put plainly: In vitro activity against promastigotes, 5-ASKH. Format: cell-based, Leishmania major. As to conditions: Leishmania major. As to the method: as §3
The test system of series [9] is L. major LV39. Briefly: In vivo activity against Leishmania major LV39 substrain. Also on record: species or system BALB/c mice. As to conditions: LASSBio-1491 10 μmol/Kg/day, glucantime 30 μmol/Kg/day x 28 days, i.p. As to the method: Thus, 6-week-old female BALB/c mice weighing approximately 20 g were used. […] Briefly, ketamine (80mg/kg) and xylazine (8 mg/kg) were simultaneously used to anesthetize the mice by intraperitoneal injection. The promastigotes of L. major LV39 substrain in the stationary phase, harvested after the third passage (obtained from parasites frozen), were inoculated subcutaneously at a concentration of 1x 10^5 parasites in the right ear of mice. […] The size of the lesions was measured using a pachymeter. Thiopental (150 mg/kg, i.p.) was used to euthanize the mice and the quantitative limiting-dilution assay was used to determine the parasite burden of infected ears and draining lymph nodes. The results obtained from experiments were expressed as the mean ± S.E.M. with the data analyzed (size of the lesions or parasite burden) by ANOVA and Dunnett hoc tests, considering a significance level of p < 0.05.

Series [10] is described as follows: PAMPA-BBB permeability. To be noted: for Classification: PAMPA-BBB.
Text: as §1

With `CCn1cc(C(=O)O)c(=O)c2cc(F)c(N3CCNCC3)cc21` [Norfloxacin], in [1] (PAMPA), the Papp (usually a coefficient for how fast a substance crosses the barrier) worked out at 0.7 ×10⁻⁶ cm/s.

The compound `CC(C)NCC(O)COc1ccc(CC(N)=O)cc1` (stereo not drawn) [Atenolol] had a Fa experimental in series [1] of 2.26%. Further, the Fa literature in [2] was 5.2%.

As for `N=C(N)c1ccc(OCCCCCOc2ccc(C(=N)N)cc2)cc1` [Pentamidine, reference compound], the IC50 (in general, the concentration at which inhibition is half-maximal) was 8.1 ± 0.9 µM in series [3] (Macrophage, amastigote LV39 in macrophages, 24 h); 5.7 ± 0.2 µM in series [4] (promastigote LV39, 48 h); > 100 µM in series [5]; 17.1 ± 5.6 µM in series [6] (Macrophage, amastigote 5-ASKH in macrophages, 24 h); 0.8 ± 0.1 µM in [8] (48 h). The Emax was 63.2 ± 2.9% in series [3] (amastigote LV39, read-out: Maximum effect (% ± S.E.M.)); 88.1 ± 0.1% in series [4] (promastigote LV39, read-out: Maximum effect (% ± S.E.M.)); 53.8 ± 1.1% in series [6] (amastigote 5-ASKH, read-out: Maximum effect (% ± S.E.M.)); 72.6 ± 2% in series [8] (read-out: Maximum effect (% ± S.E.M.)). The “NO production (nitrite)” value in series [7] is “did not”.

As to `O=C(O)Cc1ccccc1Nc1c(Cl)cccc1Cl` [Diclofenac], in [1], the Classification entry is listed as “High (high intestinal permeability (70–100%))” and the Fa experimental is given as 99.28%. Also, in [2], the Fa literature is given as 100% and the Pe literature is given as 12.5 10^−6 cm s^-1.

“meglumine antimoniate [glucantime, reference compound]”: in [9], the lesion size entry was “reduced lesion size only between days 7 and 17”; the “parasite load in draining lymph node” value is on record as “reduce the parasite load”; the “parasite load in infected ear” value is reported as “reduce the parasite load”.

Regarding `CCn1cc(C(=O)O)c(=O)c2cc(F)c(N3CCNCC3)nc21` [Enoxacin, reference compound], the Classification entry in [10] is “CNS -”.

As for `O=C(O)c1cc(/N=N/c2ccc(S(=O)(=O)Nc3ccccn3)cc2)ccc1O` [Sulfasalazine], in [2], the Fa literature is given as 42% and the Pe literature is reported as 0.3 10^−6 cm s^-1.

Take `Cn1c(=O)c2c(ncn2C)n(C)c1=O` [Caffeine, reference compound]: in series [10] (PAMPA), the apparent permeability coefficient (Papp) is 0.81 ×10⁻⁶ cm/s. For the same compound, the Classification entry in series [10] is reported as “CNS -”.

As for `Nc1nc2c(ncn2COCCO)c(=O)[nH]1` [Acyclovir], in [1], the Classification result is reported as “Low (low permeability (0–29%))” and the Fa experimental was found to be 1.70%.

Consider `CNC(=C[N+](=O)[O-])NCCSCc1ccc(CN(C)C)o1` [Ranitidine], for which, in series [1], the Classification result was “Medium (medium permeability (30–69%))” and the Fa experimental is given as 38.29%.

Regarding `CO/N=C(\C(=O)N[C@@H]1C(=O)N2C(C(=O)O)=C(CSc3nc(=O)c(=O)[nH]n3C)CS[C@H]12)c1csc(N)n1` [Ceftriaxone], in series [1], the Classification entry is reported as “Low (low permeability (0–29%))” and the Fa experimental stood at 1.37%. For the same compound, in [2], the Fa literature is recorded as 1% and the Pe literature was 0.1 10^−6 cm s^-1.
